# Measurements published in patent US9200003B2, “Crystalline forms of 1-(5′-(5-(3,5-dichloro-4-fluorophenyl)-5-(trifluoro-methyl)-4,5-dihydroisoxazol-3-yl)-3′H-spiro[azetidine-3,1′-isobenzofuran]-1-yl)-2-(methylsulfonyl) ethanone” (Zoetis Services LLC, priority 2012, dated 2015).
# Read-outs that look alike come from different tables or passages of the source.
# Assay: Solubility of the solid-state forms in organic solvents
# Assay type: physicochemical
# Settings: for solubility: organic solvent or mixture
smiles,measurement,setting,value
"CS(=O)(=O)CC(=O)N1CC2(C1)OCc1cc(C3=NOC(c4cc(Cl)c(F)c(Cl)c4)(C(F)(F)F)C3)ccc12 (racemic) [crystal racemate, (S/R)-1-(5′-(5-(3,5-dichloro-4-fluorophenyl)-5-(trifluoromethyl)-4,5-dihydroisoxazol-3-yl)-3′H-spiro[azetidine-3,1′-isobenzofuran]-1-yl)-2-(methylsulfonyl)ethanone]",solubility in acetone,"acetone, room temperature (approximately 22° C.)",less than 10 mg/mL
same,solubility in methyl t-butyl ether,methyl t-butyl ether,< 1 mg/mL
"CS(=O)(=O)CC(=O)N1CC2(C1)OCc1cc(C3=NO[C@@](c4cc(Cl)c(F)c(Cl)c4)(C(F)(F)F)C3)ccc12 [Form A, (S)-1-(5′-(5-(3,5-dichloro-4-fluorophenyl)-5-(trifluoromethyl)-4,5-dihydroisoxazol-3-yl)-3′H-spiro[azetidine-3,1′-isobenzofuran]-1-yl)-2-(methylsulfonyl)ethanone]",solubility,"methyl t-butyl ether, read-out: solubility in methyl t-butyl ether",11 mg/mL
same,solubility,"acetone, room temperature (approximately 22° C.), read-out: solubility in acetone",> 300 mg/mL
